The source of these data is ChEMBL document CHEMBL1201862, “PubChem BioAssay data set” (2004).

Test systems include CCRF-CEM; HCC 2998; HCT-15; HOP-62; MCF7; Malme-3M; NCI-H460; NCI/ADR-RES; OVCAR-3; OVCAR-5; PC-3; SF-539; SK-MEL-2; SK-MEL-5; SNB-75; UACC-62; UO-31; HOP-92; SK-OV-3.
Holding throughout (experiment): NCI-60 cell line screen, 48 h

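Briefly, cells in 96-well plates were exposed to five compound concentrations for 48 h, and endpoints were estimated by linear interpolation. The concentration for 50% growth inhibition is given as GI50.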 Active and inactive are the calls of the source. Rule as the data show it: active = GI50 up to about 1.1 µM and inactive = higher.

`CC(=O)O/N=C1\C=Cc2c(no[n+]2[O-])C1=O`: the GI50 in the assay on CCRF-CEM was 3.65 µM (inactive); with HCC 2998, 22.1 µM (inactive); in the assay with HCT-15 it was 19.8 µM; with HOP-62, 38.3 µM (inactive); in the assay on MCF7 it was 22.5 µM (inactive); in the assay on Malme-3M it was 14.7 µM (inactive). The GI50 in the assay on NCI-H460 is 34.7 µM (inactive); with NCI/ADR-RES it was 27.6 µM (inactive); in the assay with OVCAR-3, 16.2 µM (inactive); with OVCAR-5, 18.3 µM (inactive); in the assay with PC-3, 17 µM (inactive); with SF-539, 17.3 µM (inactive). The GI50 in the assay with SK-MEL-2 was 17.8 µM (inactive); in the assay on SK-MEL-5 it was 17.5 µM (inactive); with SNB-75 it was 19.8 µM (inactive); in the assay on UACC-62, 16 µM (inactive); with UO-31 it was 15.1 µM (inactive).

With `COC(=O)c1c[nH]c(=O)[nH]c1=O` [ISOOROTIC ACID METHYL ESTER], the GI50 is > 100 µM (inactive) in the assay on CCRF-CEM; > 100 µM (inactive) in the assay with HCC 2998; greater than 100 µM with HCT-15; 30.5 µM (inactive) in the assay with HOP-92; > 100 µM (inactive) in the assay with MCF7; > 100 µM (inactive) in the assay on NCI-H460. The GI50 in the assay on NCI/ADR-RES, in the assay with OVCAR-3, with OVCAR-5, in the assay on PC-3, in the assay with SF-539 and in the assay on SK-MEL-2 was > 100 µM (inactive) throughout. Also, the GI50 with SK-MEL-5, with SNB-75, with UACC-62 and in the assay on UO-31 was > 100 µM (inactive) in each case.

`COC1=CC(=O)[C@H]2[C@H](C)C(c3ccccc3)[C@@]2(C)C1=O` (stereo not given in full): the GI50 in the assay with CCRF-CEM was > 100 µM (inactive); with HCC 2998 it was > 100 µM (inactive); with HCT-15 it was greater than 100 µM; in the assay on HOP-62, > 100 µM (inactive); with HOP-92 it was > 100 µM (inactive); with Malme-3M, > 100 µM (inactive). The GI50 with NCI-H460, with OVCAR-3, in the assay on OVCAR-5, in the assay with SF-539, with SK-MEL-2 and in the assay on SK-MEL-5 was > 100 µM (inactive) throughout. Further, the GI50 in the assay on SK-OV-3, in the assay with SNB-75, in the assay on UACC-62 and in the assay with UO-31 was > 100 µM (inactive) throughout.

Take `Cc1ccc(S(=O)(=O)N2C[C@](O)(c3ccccc3)[C@H]2C)cc1`: the GI50 in the assay on CCRF-CEM is 26.4 µM (inactive); in the assay with HCT-15 it was greater than 100 µM; in the assay on HOP-62, > 100 µM (inactive); with HOP-92, > 100 µM (inactive); in the assay with MCF7, > 100 µM (inactive); with Malme-3M it was > 100 µM (inactive). The GI50 with NCI-H460, in the assay with NCI/ADR-RES, in the assay with OVCAR-5, with PC-3, in the assay on SF-539 and in the assay with SK-MEL-2 was > 100 µM (inactive) in each case. Also, the GI50 is 51.1 µM (inactive) with SK-MEL-5; > 100 µM (inactive) with SK-OV-3; 89.3 µM (inactive) with SNB-75; > 100 µM (inactive) in the assay with UACC-62; > 100 µM (inactive) in the assay with UO-31.

Consider `CCCCCCCCCCCCCCNCC(OCC)OCC`, for which the GI50 in the assay on CCRF-CEM is 4.84 µM (inactive); in the assay on HCC 2998, 13.4 µM (inactive); with HCT-15 it was 8.47 µM; with HOP-62, 16.5 µM (inactive); in the assay on HOP-92, 11.5 µM (inactive); with Malme-3M, 17.1 µM (inactive). Also, the GI50 with NCI-H460 was 17.1 µM (inactive); in the assay with OVCAR-3, 18.3 µM (inactive); in the assay on OVCAR-5, 15.3 µM (inactive); with SF-539 it was 16.1 µM (inactive); in the assay on SK-MEL-2, 14.5 µM (inactive); in the assay with SK-MEL-5, 13.9 µM (inactive). In addition, the GI50 in the assay on SK-OV-3 was 18.6 µM (inactive); with SNB-75 it was 10.4 µM (inactive); in the assay with UACC-62, 18.1 µM (inactive); with UO-31, 10.7 µM (inactive).

Turning to `CC1=NN(c2nc(N)nc(-c3ccccc3S(N)(=O)=O)n2)C(C)(C)C1`, the GI50 is 9.42 µM (inactive) with CCRF-CEM; 13.8 µM (inactive) in the assay on HCC 2998; 2.76 µM with HCT-15; 13 µM (inactive) in the assay on HOP-62; > 100 µM (inactive) with HOP-92; 22.7 µM (inactive) in the assay with MCF7. Further, the GI50 was 5.07 µM (inactive) in the assay on NCI-H460; 9.33 µM (inactive) in the assay with NCI/ADR-RES; 16.3 µM (inactive) in the assay on OVCAR-3; 27.2 µM (inactive) in the assay on OVCAR-5; 16.7 µM (inactive) with PC-3; 27.4 µM (inactive) in the assay on SF-539. Besides, the GI50 was 9.2 µM (inactive) with SK-MEL-2, 18.1 µM (inactive) with SK-MEL-5, 9.02 µM (inactive) in the assay with SK-OV-3 and 3.92 µM (inactive) with UO-31.

Take `COC(=O)C1C(=O)NC2(C)CC1c1ccccc1O2` (stereo not given): the GI50 in the assay with CCRF-CEM was > 100 µM (inactive); with HCC 2998, > 100 µM (inactive); in the assay with HCT-15 it was greater than 100 µM; with HOP-62 it was > 10 µM (inactive); in the assay with HOP-92 it was > 100 µM (inactive); in the assay with Malme-3M it was > 100 µM (inactive). The GI50 was > 100 µM (inactive) with NCI-H460; > 10 µM (inactive) with OVCAR-3; > 100 µM (inactive) in the assay on OVCAR-5; > 100 µM (inactive) in the assay with SF-539; > 100 µM (inactive) in the assay on SK-MEL-2; > 100 µM (inactive) with SK-MEL-5. Further, the GI50 in the assay with SK-OV-3 was > 100 µM (inactive); in the assay on SNB-75 it was 62.7 µM (inactive); in the assay with UACC-62, > 100 µM (inactive); in the assay on UO-31, > 100 µM (inactive).

In the case of `COc1cc2c(cc1OC)C(C(CO)CO)N(CC(O)CCl)CC2` (stereo not given), the GI50 was > 100 µM (inactive) in the assay on CCRF-CEM; > 100 µM (inactive) in the assay on HCC 2998; greater than 100 µM with HCT-15; > 100 µM (inactive) in the assay with HOP-62; > 100 µM (inactive) with HOP-92; > 100 µM (inactive) in the assay with Malme-3M. Moreover, the GI50 in the assay on NCI-H460, in the assay on OVCAR-3, in the assay with OVCAR-5, in the assay with SF-539, with SK-MEL-2 and with SK-MEL-5 was > 100 µM (inactive) each time. For the same molecule, the GI50 in the assay on SK-OV-3 was > 100 µM (inactive); in the assay on SNB-75, > 100 µM (inactive); in the assay on UACC-62, > 100 µM (inactive); in the assay on UO-31 it was 86.5 µM (inactive).

Consider `COc1ccc2c(c1)CCC1C3(CCCC21C)OCCO3` (stereo not given), for which the GI50 with CCRF-CEM was 16.9 µM (inactive); in the assay with HCC 2998, 22.8 µM (inactive); with HCT-15, 17.1 µM; in the assay on HOP-62, 13.8 µM (inactive); with HOP-92 it was 15.1 µM (inactive); with Malme-3M, 27.9 µM (inactive). Besides, the GI50 was 16.3 µM (inactive) in the assay with NCI-H460; 16.1 µM (inactive) with OVCAR-3; 27 µM (inactive) in the assay on OVCAR-5; 12.9 µM (inactive) in the assay on SF-539; 4.7 µM (inactive) with SK-MEL-2; 15.6 µM (inactive) with SK-MEL-5. For the same molecule, the GI50 was 24 µM (inactive) in the assay on SK-OV-3, 19.8 µM (inactive) in the assay on SNB-75, 15.4 µM (inactive) with UACC-62 and 16.9 µM (inactive) with UO-31.

Regarding `CC1=C2C(=O)c3ccccc3C(=O)[C@H]2C[C@@H](N2CCCCCC2=O)O1`, the GI50 was 3.44 µM (inactive) in the assay with CCRF-CEM; 16.7 µM (inactive) in the assay with HCC 2998; 20.7 µM with HCT-15; 19 µM (inactive) in the assay on HOP-62; 19.4 µM (inactive) with HOP-92; 12.9 µM (inactive) in the assay with Malme-3M. The GI50 in the assay on NCI-H460 is 18.8 µM (inactive); with NCI/ADR-RES it was 22.3 µM (inactive); in the assay on OVCAR-3 it was 18 µM (inactive); in the assay on OVCAR-5, 16.7 µM (inactive); in the assay with PC-3, 17.9 µM (inactive); with SF-539, 19 µM (inactive). In addition, the GI50 was 23.1 µM (inactive) in the assay with SK-MEL-2; 16.1 µM (inactive) in the assay with SK-MEL-5; 27.5 µM (inactive) in the assay on SK-OV-3; 23.4 µM (inactive) in the assay with SNB-75; 19.2 µM (inactive) in the assay on UACC-62; 17 µM (inactive) in the assay with UO-31.

Take `COC(=O)c1cccc(C)c1C1CN=NC12Cc1c(ccc(C)c1C)C2=O` (stereo not given): the GI50 in the assay with CCRF-CEM is 26.1 µM (inactive); in the assay with HCC 2998, 40.4 µM (inactive); with HCT-15, 16.4 µM; in the assay with HOP-62 it was 51.6 µM (inactive); with HOP-92, 38.4 µM (inactive); in the assay with MCF7, 32.5 µM (inactive). Moreover, the GI50 in the assay with Malme-3M was 22.9 µM (inactive); in the assay with NCI-H460, 47.6 µM (inactive); with NCI/ADR-RES, 33.1 µM (inactive); in the assay with OVCAR-3 it was 42.2 µM (inactive); in the assay with OVCAR-5 it was > 100 µM (inactive); in the assay with SF-539, > 100 µM (inactive). Also, the GI50 in the assay on SK-MEL-5 is 0.102 µM (active); with SNB-75 it was 51.5 µM (inactive); in the assay with UO-31, > 100 µM (inactive).

For `S=C(N/N=C\C=N/NC(=S)N1CCCCC1)N1CCCCC1`, the GI50 was 0.0802 µM in the assay with HCT-15; 0.203 µM (active) in the assay with HOP-62; 3.23 µM (inactive) with HOP-92; 0.466 µM (active) in the assay on MCF7; 0.321 µM (active) with Malme-3M; < 0.0151 µM (active) in the assay with NCI-H460. Besides, the GI50 in the assay with NCI/ADR-RES was 0.267 µM (active); in the assay on OVCAR-3, 0.251 µM (active); in the assay with OVCAR-5 it was > 29.3 µM (inactive); in the assay on PC-3, 0.387 µM (active); in the assay on SF-539 it was 0.435 µM (active); with SK-MEL-5, 0.37 µM (active). Also, the GI50 is 0.692 µM (active) with SK-OV-3, 0.731 µM (active) in the assay with SNB-75, 0.594 µM (active) in the assay with UACC-62 and 0.195 µM (active) with UO-31.
